Reference: PMC6255700, “A novel glycosyltransferase catalyses the transfer of glucose to glucosylated anthocyanins in purple sweet potato” (Journal of Experimental Botany, 2018)

Legend:
[1] = molecular target: T1, At3GGT (UGT79B1, AtA3G2XylT) (Arabidopsis thaliana, UniProt Q9LVW3); test: HPLC / LC-MS glycosyltransferase assay with crude recombinant yeast extract; type: cell-based; settings: acceptor; donor UDP-xylose; 100 mM phosphate pH 7.0, 37 °C, 2 h
T1 construct: gene A3G2XYLT; full length, C-terminal His6, pYES2 in Saccharomyces cerevisiae BY4742, crude yeast extract
T1 sequence (Q9LVW3 1-468): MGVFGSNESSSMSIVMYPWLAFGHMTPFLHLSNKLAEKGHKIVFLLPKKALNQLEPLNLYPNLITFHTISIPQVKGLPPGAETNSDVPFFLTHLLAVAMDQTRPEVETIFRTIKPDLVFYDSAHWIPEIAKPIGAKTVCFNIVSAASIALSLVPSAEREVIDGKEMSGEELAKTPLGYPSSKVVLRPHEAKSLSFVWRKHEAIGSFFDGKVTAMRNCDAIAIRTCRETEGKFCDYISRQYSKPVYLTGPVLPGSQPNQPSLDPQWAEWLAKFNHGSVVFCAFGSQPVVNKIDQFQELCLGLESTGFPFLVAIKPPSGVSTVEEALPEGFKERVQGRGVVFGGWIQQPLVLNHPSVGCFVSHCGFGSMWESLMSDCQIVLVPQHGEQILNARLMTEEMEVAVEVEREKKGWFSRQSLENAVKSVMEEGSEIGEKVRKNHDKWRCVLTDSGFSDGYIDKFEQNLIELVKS

Ib3GGT (IbA3G2GluT) = molecular target: T2, Ib3GGT (IbA3G2GluT) (Ipomoea batatas, UniProt A1YM58); test: as above; type: cell-based; settings: acceptor; donor 1 mM UDP-glucose; 100 mM phosphate pH 7.0, 37 °C, 2 h
T2 construct: gene GT
T2 sequence (A1YM58 entry or part of it): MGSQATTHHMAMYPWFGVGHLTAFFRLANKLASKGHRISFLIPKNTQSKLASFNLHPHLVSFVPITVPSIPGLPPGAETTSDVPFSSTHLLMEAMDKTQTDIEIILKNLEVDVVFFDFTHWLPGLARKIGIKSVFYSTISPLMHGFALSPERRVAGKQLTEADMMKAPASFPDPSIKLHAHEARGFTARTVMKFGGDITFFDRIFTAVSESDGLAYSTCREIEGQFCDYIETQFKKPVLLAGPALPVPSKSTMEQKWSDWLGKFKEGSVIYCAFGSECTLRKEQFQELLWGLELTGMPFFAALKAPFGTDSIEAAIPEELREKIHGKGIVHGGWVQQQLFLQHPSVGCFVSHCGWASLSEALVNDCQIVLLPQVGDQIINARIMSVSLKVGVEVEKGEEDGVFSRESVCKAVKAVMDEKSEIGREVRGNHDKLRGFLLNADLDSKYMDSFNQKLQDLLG

OC[C@H]1O[C@@H](Oc2cc3c(O)cc(O)cc3[o+]c2-c2ccc(O)c(O)c2)[C@H](O)[C@@H](O)[C@@H]1O [cyanidin 3-O-glucoside]
HPLC / LC-MS glycosyltransferase assay with crude recombinant yeast extract [1]: using only UDP-xylose as the sugar donor to catalyse cyanidin 3-O-glucoside into cyanidin 3-O-glucoside-2″-O-xyloside | HPLC / LC-MS glycosyltransferase assay with crude recombinant yeast extract (Ib3GGT (IbA3G2GluT)): The recombinant Ib3GGT protein only catalysed the conversion of cyanidin 3-O-glucoside into cyanidin 3-O-sophoroside
